Results from US20240391948A1, “NOVEL COMPOUND THAT INHIBITS TNF-ALPHA GENERATION AND INFLAMMASOME ACTIVITY AND PREPARATION METHOD THEREFOR” (SHAPERON INC., priority 2021, published 2024).

Legend:
Type in all cases: cell-based
[1] = tested on: U937 cells (human monocytic cell line); assay: Pam2CSK4-induced TNF-α secretion inhibition in PMA-differentiated U937 cells; details: U-937, U937 cells differentiated with PMA, read-out: TNF-α production inhibition grade (IC50)
Summary of the method: (§1)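 Inhibition is given as IC50 (μM) in A-D bands, using distinct thresholds for TNF-α and for IL-1β. Secretion followed Pam2CSK4 stimulation (TNF-α) or BzATP stimulation (IL-1β) of compound-pretreated, PMA-differentiated U937 macrophages.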

[2] = tested on: J774A.1 (Mouse BALB/c monocyte macrophage cell line) cells; assay: LPS+ATP-induced IL-1β secretion inhibition in J774A.1 cells; details: J774.A1, 1 μM compound, graded compared to taurodeoxycholic acid (positive control), read-out: IL-1β production inhibition grade
Summary of the method: (§2)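 Grades (A >100%, B 50–100%, C 20–50%, D <20%) express cytokine suppression by 1 μM compound relative to taurodeoxycholic acid. LPS-induced TNF-α and LPS+ATP-induced IL-1β secretion were measured in murine J774A.1 macrophage cells.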

[3] = tested on: J774A.1 (Mouse BALB/c monocyte macrophage cell line) cells; assay: LPS-induced TNF-α secretion inhibition in J774A.1 cells; details: J774.A1, 1 μM compound, graded compared to taurodeoxycholic acid (positive control), read-out: TNF-α production inhibition grade
Summary of the method: as §2

[4] = tested on: U937 cells (human monocytic cell line); assay: BzATP-induced IL-1β secretion inhibition in PMA-differentiated U937 cells; details: U-937, U937 cells differentiated with PMA, read-out: IL-1β production inhibition grade (IC50)
Summary of the method: as §1

Compound | IC50 [1] [nM] | inhibition at 1 µM [2] [%] | inhibition at 1 µM [3] [%] | IC50 [4] [nM]
CC[C@H]1[C@@H](O)[C@@H]2[C@H](CC[C@]3(C)[C@@H]([C@H](C)CCC(=O)NC[C@H](C)S(=O)(=O)O)CC[C@@H]23)[C@@]2(C)CC[C@@H](O)C[C@@H]12 [NC40022] | 500 to 1000 | 20 to 50 | 20 to 50 | ≥ 200
CC[C@H]1[C@@H](O)[C@@H]2[C@H](CC[C@]3(C)[C@@H]([C@H](C)CCC(=O)NC[C@@H](C)S(=O)(=O)O)CC[C@@H]23)[C@@]2(C)CC[C@@H](O)C[C@@H]12 [NC40023] | 500 to 1000 | < 20 | < 20 | ≥ 200
CC[C@H]1[C@@H](O)[C@@H]2[C@H](CC[C@]3(C)[C@@H]([C@H](C)CCC(=O)N[C@@H](CO)CS(=O)(=O)O)CC[C@@H]23)[C@@]2(C)CC[C@@H](O)C[C@@H]12 [NC40024] | 500 to 1000 | < 20 | < 20 | ≥ 200
CC[C@H]1[C@@H](O)[C@@H]2[C@H](CC[C@]3(C)[C@@H]([C@H](C)CCC(=O)N[C@H](CO)CS(=O)(=O)O)CC[C@@H]23)[C@@]2(C)CC[C@@H](O)C[C@@H]12 [NC40025] | 500 to 1000 | 20 to 50 | 20 to 50 | 50 to 100
CC[C@H]1[C@@H](O)[C@@H]2[C@H](CC[C@]3(C)[C@@H]([C@H](C)CCC(=O)N[C@H]4CCCC[C@H]4S(=O)(=O)O)CC[C@@H]23)[C@@]2(C)CC[C@@H](O)C[C@@H]12 [NC40027] | ≥ 2000 | 50 to 100 | < 20 | ≥ 200
CC[C@H]1[C@@H](O)[C@@H]2[C@H](CC[C@]3(C)[C@@H]([C@H](C)CCC(=O)N[C@@H](C)CS(=O)(=O)O)CC[C@@H]23)[C@@]2(C)CC[C@@H](O)C[C@@H]12 [NC40028] | 1000 to 2000 | 50 to 100 | < 20 | 100 to 200
CC[C@H]1[C@@H](O)[C@@H]2[C@H](CC[C@]3(C)[C@@H]([C@H](C)CCC(=O)N[C@H](C)CS(=O)(=O)O)CC[C@@H]23)[C@@]2(C)CC[C@@H](O)C[C@@H]12 [NC40029] | 1000 to 2000 | < 20 | < 20 | ≥ 200
CC[C@H]1[C@@H](O)[C@@H]2[C@H](CC[C@]3(C)[C@@H]([C@H](C)CCC(=O)N[C@@H](CC(C)C)CS(=O)(=O)O)CC[C@@H]23)[C@@]2(C)CC[C@@H](O)C[C@@H]12 [NC40030] | 1000 to 2000 | < 20 | < 20 | ≥ 200
CC[C@H]1[C@@H](O)[C@@H]2[C@H](CC[C@]3(C)[C@@H]([C@H](C)CCC(=O)N[C@H](CC(C)C)CS(=O)(=O)O)CC[C@@H]23)[C@@]2(C)CC[C@@H](O)C[C@@H]12 [NC40031] | 1000 to 2000 | < 20 | < 20 | ≥ 200
CC[C@H]1[C@@H](O)[C@@H]2[C@H](CC[C@]3(C)[C@@H]([C@H](C)CCC(=O)NC4(CS(=O)(=O)O)CC4)CC[C@@H]23)[C@@]2(C)CC[C@@H](O)C[C@@H]12 [NC40032] | 1000 to 2000 | < 20 | < 20 | ≥ 200
CC[C@H]1[C@@H](O)[C@@H]2[C@H](CC[C@]3(C)[C@@H]([C@H](C)CCC(=O)N4CC[C@H](S(=O)(=O)O)C4)CC[C@@H]23)[C@@]2(C)CC[C@@H](O)C[C@@H]12 [NC40033] | < 500 | > 100 | > 100 | < 50
CC[C@H]1[C@@H](O)[C@@H]2[C@H](CC[C@]3(C)[C@@H]([C@H](C)CCC(=O)N4CC[C@@H](S(=O)(=O)O)C4)CC[C@@H]23)[C@@]2(C)CC[C@@H](O)C[C@@H]12 [NC40034] | < 500 | > 100 | 20 to 50 | < 50
CC[C@H]1[C@@H](O)[C@@H]2[C@H](CC[C@]3(C)[C@@H]([C@H](C)CCC(=O)N(CCN(C)C)CCS(=O)(=O)O)CC[C@@H]23)[C@@]2(C)CC[C@@H](O)C[C@@H]12 [NC40035] | < 500 | > 100 | < 20 | 50 to 100
CC[C@H]1[C@@H](O)[C@@H]2[C@H](CC[C@]3(C)[C@@H]([C@H](C)CCC(=O)N(CCS(=O)(=O)O)Cc4cccnc4)CC[C@@H]23)[C@@]2(C)CC[C@@H](O)C[C@@H]12 [NC40036] | 1000 to 2000 | 50 to 100 | < 20 | 50 to 100
CC[C@H]1[C@@H](O)[C@@H]2[C@H](CC[C@]3(C)[C@@H]([C@H](C)CCC(=O)N(CCS(=O)(=O)O)c4ccccc4)CC[C@@H]23)[C@@]2(C)CC[C@@H](O)C[C@@H]12 [NC40037] | 500 to 1000 | 20 to 50 | < 20 | 50 to 100
CC[C@H]1[C@@H](O)[C@@H]2[C@H](C[C@H](O)[C@]3(C)[C@@H]([C@H](C)CCC(=O)N(C)CCS(=O)(=O)O)CC[C@@H]23)[C@@]2(C)CC[C@@H](O)C[C@@H]12 [NC50004] | ≥ 2000 | < 20 | < 20 | 100 to 200
CC[C@H]1[C@@H](O)[C@@H]2[C@H](C[C@H](O)[C@]3(C)[C@@H]([C@H](C)CCC(=O)N(CCO)CCS(=O)(=O)O)CC[C@@H]23)[C@@]2(C)CC[C@@H](O)C[C@@H]12 [NC50006] | ≥ 2000 | < 20 | < 20 | < 50
CC[C@H]1[C@@H](O)[C@@H]2[C@H](C[C@H](O)[C@]3(C)[C@@H]([C@H](C)CCC(=O)N(CCS(=O)(=O)O)C(C)C)CC[C@@H]23)[C@@]2(C)CC[C@@H](O)C[C@@H]12 [NC50007] | 1000 to 2000 | > 100 | < 20 | 50 to 100
CC[C@H]1[C@@H](O)[C@@H]2[C@H](C[C@H](O)[C@]3(C)[C@@H]([C@H](C)CCC(=O)N(CCS(=O)(=O)O)C4CCOCC4)CC[C@@H]23)[C@@]2(C)CC[C@@H](O)C[C@@H]12 [NC50008] | 500 to 1000 | > 100 | < 20 | < 50
CC[C@H]1[C@@H](O)[C@@H]2[C@H](C[C@H](O)[C@]3(C)[C@@H]([C@H](C)CCC(=O)N4CCC[C@@H](S(=O)(=O)O)C4)CC[C@@H]23)[C@@]2(C)CC[C@@H](O)C[C@@H]12 [NC50010] | ≥ 2000 | > 100 | < 20 | 100 to 200
CC[C@H]1[C@@H](O)[C@@H]2[C@H](C[C@H](O)[C@]3(C)[C@@H]([C@H](C)CCC(=O)N4CC(S(=O)(=O)O)C4)CC[C@@H]23)[C@@]2(C)CC[C@@H](O)C[C@@H]12 [NC50012] | 1000 to 2000 | > 100 | < 20 | < 50
CC[C@H]1[C@@H](O)[C@@H]2[C@H](C[C@H](O)[C@]3(C)[C@@H]([C@H](C)CCC(=O)NC(C)(C)CS(=O)(=O)O)CC[C@@H]23)[C@@]2(C)CC[C@@H](O)C[C@@H]12 [NC50013] | 1000 to 2000 | > 100 | < 20 | < 50
CC[C@H]1[C@@H](O)[C@@H]2[C@H](C[C@H](O)[C@]3(C)[C@@H]([C@H](C)CCC(=O)N[C@H](Cc4ccccc4)CS(=O)(=O)O)CC[C@@H]23)[C@@]2(C)CC[C@@H](O)C[C@@H]12 [NC50015] | 1000 to 2000 | > 100 | < 20 | 50 to 100
CC[C@H]1[C@@H](O)[C@@H]2[C@H](C[C@H](O)[C@]3(C)[C@@H]([C@H](C)CCC(=O)N[C@H](CS(=O)(=O)O)C(C)C)CC[C@@H]23)[C@@]2(C)CC[C@@H](O)C[C@@H]12 [NC50016] | 500 to 1000 | > 100 | < 20 | 50 to 100
CC[C@H]1[C@@H](O)[C@@H]2[C@H](C[C@H](O)[C@]3(C)[C@@H]([C@H](C)CCC(=O)N[C@H](CS(=O)(=O)O)c4ccccc4)CC[C@@H]23)[C@@]2(C)CC[C@@H](O)C[C@@H]12 [NC50018] | ≥ 2000 | 50 to 100 | < 20 | 50 to 100
CC[C@H]1[C@@H](O)[C@@H]2[C@H](C[C@H](O)[C@]3(C)[C@@H]([C@H](C)CCC(=O)N[C@@H](CS(=O)(=O)O)c4ccccc4)CC[C@@H]23)[C@@]2(C)CC[C@@H](O)C[C@@H]12 [NC50019] | 1000 to 2000 | 50 to 100 | < 20 | ≥ 200
CC[C@H]1[C@@H](O)[C@@H]2[C@H](C[C@H](O)[C@]3(C)[C@@H]([C@H](C)CCC(=O)N4CCC[C@H]4CS(=O)(=O)O)CC[C@@H]23)[C@@]2(C)CC[C@@H](O)C[C@@H]12 [NC50021] | 500 to 1000 | 20 to 50 | < 20 | ≥ 200
